Assay results from patent publication US11426365B2, “Compositions comprising thymoquinone and omega-3 fatty acids” (TRINUTRA LTD., priority 2017, dated 2022).

Test system: NO production in LPS-stimulated RAW 264.7 macrophage cells
Experiment: Inhibition of nitric oxide (NO) production in LPS-stimulated murine macrophages (RAW 264.7), Griess reagent
Assay type: cell-based
Settings: 3 h pre-treatment, then 5 ng/ml LPS overnight; FO 15 μM, DIM 15 μM, BC-concentrated TQ 10 μM; FIG. 3
Description: These two different BC preparations were then tested for their ability to inhibit NO production, in accordance with the method described hereinbelow in Example 4.
BC-concentrated TQ (obtained from TriNutra. Ness Ziona, Israel), Omega-3 oil (fish oil—FO) and Diindolylmethane (DIM) were tested on a macrophage murine cellular system (RAW 264.7) before stimulation with Lipopolysaccharide (LPS), an endotoxin which induces a strong response from normal animal immune systems.
Cells were thawed, grown and managed according to standard protocols.
On Day 0, cells were seeded in 6-well plates at concentrations of 6×10^5. Volume of medium per well was 2 ml. Cells were seeded in triplicates for each treatment and for each control.
Culture Medium • 10% FCS, 1% Penicillin-Streptomycin Solution, 2% Glutamine 2% were added to DMEM (final volume −500 ml) and filtered. Medium was kept at 2-8° C. until use.
10 mg LPS was dissolved in 10 ml sterile water aliquoted and kept at −20° C.
Before use 1 aliquot was defrosted and diluted in culture media to final concentration of 5 ng/ml.
MW of Fish oil 300 g/mol.
Test items were dissolved in 100% ethanol to form 100 mM concentration.
Further dilutions were made in culture medium. 10% of test item in concentration×10 was added to each well according to study plan.
Stock solution (100 mM) was prepared in 100% DMSO. […]

For `c1ccc2c(Cc3c[nH]c4ccccc34)c[nH]c2c1` [DIM, 3,3′-Diindolylmethane], the “inhibition of NO production when tested separately” value was “caused inhibition of NO production”.
